How the values were obtained:
[1] = test system: untransfected HEK-293 cells; test: forskolin-stimulated cAMP accumulation, untransfected HEK-293 cells; assay type: cell-based, human
[2] = test system: RAMP-CLR complexes (RAMP1, RAMP2, RAMP3); test: (Ca^2+)i mobilization with inhibitor pretreatment, HEK-293 cells, all RAMP-CLR complexes; assay type: cell-based, human; conditions: 100 nM YM-254890, 30 min pretreatment
Description: FIGURE 8. CLR in combination with each RAMP generates receptors that mobilize (Ca^2+)i release when expressed in HEK-293 cells. (Ca^2+)i mobilization was determined from HEK-293 cells transiently transfected with CLR and RAMP1 (n = 5) (A), RAMP2 (n = 5) (B), and RAMP3 (n = 5) (C). […] Data are expressed as percentage of the maximal (Ca^2+)i release as determined using 10 μM ionomycin. To determine the contribution made by different G proteins to the (Ca^2+)i response, cells were preincubated with either PTX (to inhibit Gαi) or YM-254890 (a selective Gαq inhibitor). All values are means ± S.E. of n individual data sets.
HEK-293 cells, provided by Dr. Jügen Müller (University of Aston), were cultured in DMEM supplemented with 10% heat-inactivated FBS and kept at 37 °C in a humidified 95% air, 5% CO2 incubator. HEK-293S cells (a gift from AstraZeneca) were cultured in DMEM supplemented with 8% heat-inactivated FBS and kept at 37 °C in a humidified 95% air, 5% CO2 incubator. HEK-293 cells were transfected with FuGENE 6 (Roche Applied Science) in accordance with the manufacturer's instructions using a 1:3 (w:v) DNA:FuGENE ratio and a 1:1 ratio of RAMP to CLR. HEK-293S cells were seeded into 96-well poly-D-lysine-coated plates at a density of 15,000 cells/well (determined using a Countess^TM cell counter, Invitrogen) 1 day prior to transfection. HEK-293S cells were transiently transfected as described previously ([38]) using a 1:1 ratio of RAMP to CLR. The transfected cell lines were grown for 24–48 h prior to assaying.
Transfected HEK-293 cells were grown to confluence in black, clear bottomed, 96-well plates. […] Ligands were added robotically using a Mithras LB 940 multimode microplate reader in the range of 10 pM to 1 μM, and fluorescence was determined immediately post-injection with an excitation wavelength set to 485 nm and an emission wavelength set to 535 nm. […] Peak magnitude was calculated using five-point smoothing followed by correction against background fluorescence. […]

Compound: C=C[C@@]1(C)CC(=O)[C@]2(O)[C@@]3(C)[C@@H](O)CCC(C)(C)[C@@H]3[C@H](O)[C@H](OC(C)=O)[C@@]2(C)O1 [forskolin, Forskolin]
- overall level of cAMP accumulation, forskolin stimulation ([1]; untransfected HEK-293, PTX treated): 16.45 ± 2.4 pmol cell^−1
- overall level of cAMP accumulation, forskolin stimulation ([1]; untransfected HEK-293, untreated (no PTX)): 16.57 ± 2.5 pmol cell^−1

Compound: YM-254890
- effect of YM-254890 on (Ca^2+)i mobilization by AM and AM2 ([2]; HEK-293, all RAMP-CLR complexes): abolish all (Ca^2+)i mobilization
- effect of YM-254890 on response to CGRP ([2]; HEK-293, all three RAMP-CLR complexes): considerably attenuated
